Here are results for one sequence from PMC9249808, “A novel lipidic peptide with potential to promote balanced effector-regulatory T cell responses” (Scientific Reports, 2022).

For one test, the system named is Lck. As to the kind of experiment: Kinase profiling, Lck. In kind it is biochemical. The note with it: Eurofins KinaseProfiler, [γ-33P-ATP] scintillation, 0.003-10 uM, 2% DMSO, no pre-incubation, Fig. 6c, 6e. How it is done:
Non-cell-based kinase profiling assays were performed by Eurofins (France). All compounds were prepared to 50 × final assay concentration in 100% DMSO. This working stock of the compound was added to assay wells as the first component in the reaction, followed by the remaining components as detailed in the specific assay protocols below. In the standard KinaseProfiler service, there was no pre-incubation step between the compound and the kinase prior to initiation of the reaction. Control wells contained all components of the reaction, except the compound of interest; however, DMSO (at a final concentration of 2%) was included in these wells to control for solvent effects. […] The reference inhibitors for each kinase are indicated in the methods for each kinase assay. […] Kinase activities were assessed in the presence of compounds at a concentration range of 0.003 -10 uM and the following kinases were tested: c-Src, Lck, Jak1, Jak2, Tyk2, CaMKIV and HPK1 (MAP4K1). Reactions between IK14004, substrates and MgAcetate/[γ^33P-ATP] mixes for each respective kinase were stopped by the addition of phosphoric acid and reaction mixtures spotted on P30 filtermats for scintillation according to the detailed methods available from Eurofins. The activities of Lck and c-Src were also assessed in the presence of the unconjugated components of IK14004, i.e., […] (IK14000) and the dodecanoic acid moiety [(2)Adod]4 (IK00041) and a lipidic peptide containing substituted amino acid residues (IK14DE04).

Test [1] relates to CD4+ T cells within T cell cultures. Kind of test: Flow cytometry of CD4+ T cells within isolated CD3+ T cell cultures (anti-CD3/anti-CD28). It is filed as cell-based, human. The note with it: anti-CD3/anti-CD28, 72 h, MFI, Fig. 1b (IK14004), Fig. 1e (IK14000). On the procedure: CD3^+ T cells were isolated from PBMCs by negative selection using immune-magnetic separation (Stem cell kits), resuspended in complete medium as used for PBMCs at 0.5 × 10^6/mL and plated at a density of 5 × 10^4 per well (100 µL) in 96-well, flat bottom culture plates. CD4^+ and CD8^+ T cell populations were isolated by immunomagnetic separation and resuspended in RPMI-10 at 0.5 × 10^6/mL with a plating density of 0.5 × 10^5 per well. Either the lipidic peptide, IK14004, or IK14000 ([…]) was added to wells at a final volume of 50 µL per well, together with anti-CD3 anti-CD28 coated Dynabeads (ThermoFisher) at a 4:1 cell:bead ratio (1.25 × 10^4/well, 50 µL volume) and cells cultured for 72 h at 37 °C and 5% CO2. […]
For flow cytometry and ELISA experiments, data from IK14004 and vehicle groups were analysed using parametric statistical procedures. […]
A general note: A flow cytometer gives signals particle by particle.

On to RSKAKNPLYR [IK14000], for which the Lck activity result in the test on Lck is on record as “neither IK14000 nor IK00041 had an effect”. In addition, the “CD25 expression in CD4+ T cells” value in test [1] is recorded as “decrease in CD25 expression in CD4+ T cells at higher concentrations”.
